Data on one compound can be found in patent US10683525B2, “Method for producing 2-O-glyceryl-alpha-D-glucopyranoside” (Technische Universität Graz, priority 2006, dated 2020).

For this experiment, the system named is mannitol dehydrogenase, MDH. The experiment in a line: Stabilization of proteins during freeze drying. It counts as biochemical. The note with it: MDH 0.8 mg/ml, 20-1500 mM αGG in 100 mM Tris/HCl buffer pH 7.0, lyophilized over-night and redissolved; irrespective of the added αGG concentration; 2% without any stabilizer. As to the method: The protein of interest (e.g. mannitol dehydrogenase, MDH) was incubated at a concentration of 0.8 mg/ml in the presence of 0, 20, 50, 100, 500, 1000 or 1500 mM αGG in 100 mM Tris/HCl buffer, pH 7.0. The samples were lyophilized over-night and dissolved in the same buffer again. The specific enzyme activity was determined, using appropriate assays for the corresponding enzyme as described elsewhere (Slatner M. et al., Biochemistry 38: 10489-10498), before and after freeze drying. Without any stabilizer added the enzymatic activity of MDH dropped down to 2% after freeze drying, whereas αGG is able to maintain enzymatic activity up to 48% irrespective of the added αGG concentration.

`OCC(CO)O[C@H]1O[C@H](CO)[C@@H](O)[C@H](O)[C@H]1O` [αGG, 2-O-glyceryl-α-D-glucopyranoside]: the “enzymatic activity of MDH maintained after freeze drying” value was “up to 48%”.
